Patent US20260325540A1 (priority 2023, published 2026)

Legend:
MERS-CoV 3CLpro = MERS-CoV 3CLpro (Middle East respiratory syndrome-related coronavirus, UniProt K9N638); assay: biochemical; conditions: MERS IC50, 75 nM MERS-CoV 3CLpro, 6 μM peptide 1 substrate, 25° C., 1.5 hrs, pH 7.5
SARS-CoV-2 3CLpro = SARS-CoV-2 3CLpro (Severe acute respiratory syndrome coronavirus 2, UniProt P0DTD1); assay: FRET based protease assay, SARS-CoV-2 3CL; type: biochemical, SARS-CoV-2 (strain BetaCoV/Wuhan/WIV04/2019)

Sequence of MERS-CoV 3CLpro (K9N638 3248-3553 limits assumed): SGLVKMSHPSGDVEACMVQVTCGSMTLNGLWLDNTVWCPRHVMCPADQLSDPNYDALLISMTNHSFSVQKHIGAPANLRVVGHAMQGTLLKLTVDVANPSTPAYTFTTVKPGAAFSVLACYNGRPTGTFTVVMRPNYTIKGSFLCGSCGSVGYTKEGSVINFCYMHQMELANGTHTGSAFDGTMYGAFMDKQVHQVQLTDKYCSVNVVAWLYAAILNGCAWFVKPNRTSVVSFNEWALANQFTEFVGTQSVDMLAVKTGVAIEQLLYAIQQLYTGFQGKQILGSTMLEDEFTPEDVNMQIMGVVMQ

| Structure (SMILES) | IC50 (MERS-CoV 3CLpro) | IC50 (SARS-CoV-2 3CLpro) |
| --- | --- | --- |
| CC(C)(C)OC(=O)N[C@H]1CCCC[C@H]2CNC(=O)[C@H]2C[C@@H](C#N)NC(=O)[C@@H]2CCCCCN2C1=O [Example 143] | 100 to 1000 nM | 100 to 1000 nM |
| CCO[C@@H]1C[C@H]2C(=O)N[C@H](C#N)C[C@@H]3C(=O)NC[C@@H]3CCCC[C@H](NC(=O)OC(C)(C)C)C(=O)N2C1 [Example 144] | 1000 to 20000 nM | < 100 nM |
| CCC(C)(C)[C@@H]1NC(=O)[C@@H](NC(=O)OC(C)(C)C)CCCC[C@H]2CNC(=O)[C@H]2C[C@@H](C#N)NC1=O [Example 145] | 1000 to 20000 nM | 1000 to 20000 nM |
| CC(C)(C)OC(=O)N[C@H]1CCCC[C@H]2CNC(=O)[C@H]2C[C@@H](C#N)NC(=O)[C@H]2N(CC(F)(F)C2(C)C)C1=O [Example 146] | 100 to 1000 nM | 100 to 1000 nM |
| CO[C@@H]1C[C@H]2C(=O)N[C@H](C#N)C[C@@H]3C(=O)NC[C@@H]3CCCC[C@H](NC(=O)OC(C)(C)C)C(=O)N2C1 [Example 147] | 100 to 1000 nM | < 100 nM |
| CC1(C)[C@@H]2[C@H]3C(=O)N[C@H](C#N)C[C@@H]4C(=O)NC[C@@H]4CCCC[C@H](NC(=O)C45CCC(C4)C5)C(=O)N3C[C@@H]21 [Example 148] | 100 to 1000 nM | < 100 nM |
| CC(C)(C)C[C@@H]1NC(=O)[C@@H](NC(=O)C2(C(F)(F)F)CC2)CCCC[C@H]2CNC(=O)[C@H]2C[C@@H](C#N)NC1=O [Example 149] | 100 to 1000 nM | < 100 nM |
| N#C[C@@H]1C[C@@H]2C(=O)NC[C@@H]2CCCC[C@H](NC(=O)C2(C(F)(F)F)CC2)C(=O)N2C[C@@H]3CCC[C@@H]3[C@H]2C(=O)N1 [Example 150] | < 100 nM | < 100 nM |
| N#C[C@@H]1C[C@@H]2C(=O)NC[C@@H]2CCCC[C@H](NC(=O)C2(C(F)(F)F)CC2)C(=O)N2CCC3(CC3)C[C@H]2C(=O)N1 [Example 151] | 100 to 1000 nM | < 100 nM |
| CC1(C)[C@@H]2[C@H]3C(=O)N[C@H](C#N)C[C@@H]4C(=O)NC[C@@H]4CCCC[C@H](NC(=O)OC4(C(F)(F)F)CCC4)C(=O)N3C[C@@H]21 [Example 152] | < 100 nM | < 100 nM |
| CC1(C)[C@@H]2[C@H]3C(=O)N[C@H](C#N)C[C@@H]4C(=O)NC[C@@H]4CCCC[C@H](NC(=O)c4cc(C(F)(F)F)on4)C(=O)N3C[C@@H]21 [Example 153] | 100 to 1000 nM | < 100 nM |
| CC1(C)[C@@H]2[C@H]3C(=O)N[C@H](C#N)C[C@@H]4C(=O)NC[C@@H]4CCCC[C@H](NS(=O)(=O)c4ccccc4)C(=O)N3C[C@@H]21 [Example 154] | < 100 nM | < 100 nM |
| N#C[C@@H]1C[C@@H]2C(=O)NC[C@@H]2CCCC[C@H](NS(=O)(=O)c2ccc(F)cc2F)C(=O)N2C[C@@H]3CCC[C@@H]3[C@H]2C(=O)N1 [Example 155] | 100 to 1000 nM | < 100 nM |
| CC1(C)[C@@H]2[C@H]3C(=O)N[C@H](C#N)C[C@@H]4C(=O)NC[C@@H]4CCCC[C@H](NS(=O)(=O)C4CC4)C(=O)N3C[C@@H]21 [Example 156] | < 100 nM | < 100 nM |
| CC1(C)[C@@H]2[C@H]3C(=O)N[C@H](C#N)C[C@@H]4C(=O)NC[C@@H]4CCCC[C@H](NS(=O)(=O)c4ccc(F)cc4F)C(=O)N3C[C@@H]21 [Example 157] | < 100 nM | < 100 nM |
| CC1(C)[C@@H]2[C@H]3C(=O)N[C@H](C#N)C[C@@H]4C(=O)NC[C@@H]4CCCC[C@H](NS(=O)(=O)C(F)(F)F)C(=O)N3C[C@@H]21 [Example 158] | < 100 nM | < 100 nM |
| CC1(C)[C@@H]2[C@H]3C(=O)N[C@H](C#N)C[C@@H]4C(=O)NC[C@@H]4CCCC[C@H](NS(=O)(=O)C4(C)CC4)C(=O)N3C[C@@H]21 [Example 159] | < 100 nM | < 100 nM |
| CC1(C)[C@@H]2[C@H]3C(=O)N[C@H](C#N)C[C@@H]4C(=O)NC[C@@H]4CCCC[C@H](NS(=O)(=O)C4CCC4)C(=O)N3C[C@@H]21 [Example 160] | < 100 nM | < 100 nM |
| CC1(C)[C@@H]2[C@H]3C(=O)N[C@H](C#N)C[C@@H]4C(=O)NC[C@@H]4CCCC[C@H](N)C(=O)N3C[C@@H]21 [Example 161] | 1000 to 20000 nM | 100 to 1000 nM |
| CC1(C)[C@@H]2[C@H]3C(=O)N[C@H](C#N)C[C@@H]4C(=O)NC[C@@H]4CCCC[C@H](Nc4nccc(C(F)(F)F)n4)C(=O)N3C[C@@H]21 [Example 162] | 100 to 1000 nM | < 100 nM |
| CC1(C)[C@@H]2[C@H]3C(=O)N[C@H](C#N)C[C@@H]4C(=O)NC[C@@H]4CCCC[C@H](Nc4cc(C(F)(F)F)ncn4)C(=O)N3C[C@@H]21 [Example 163] | 100 to 1000 nM | < 100 nM |
| CC1(C)[C@@H]2[C@H]3C(=O)N[C@H](C#N)C[C@@H]4C(=O)NC[C@@H]4CCCC[C@H](Nc4ccnc(C(F)(F)F)n4)C(=O)N3C[C@@H]21 [Example 164] | 100 to 1000 nM | < 100 nM |
| N#C[C@@H]1C[C@@H]2C(=O)NC[C@@H]2CCCC[C@H](Nc2nccc(C(F)(F)F)n2)C(=O)N2C[C@@H]3CCC[C@@H]3[C@H]2C(=O)N1 [Example 165] | 100 to 1000 nM | < 100 nM |
| CC(C)(C)NC(=O)[C@@H]1CCCC[C@H]2CNC(=O)[C@H]2C[C@@H](C#N)NC(=O)[C@@H]2[C@@H]3[C@H](CN2C1=O)C3(C)C [Example 166] | > 20000 nM | 1000 to 20000 nM |
| CC(C)(C)NC(=O)[C@H]1CCCC[C@H]2CNC(=O)[C@H]2C[C@@H](C#N)NC(=O)[C@@H]2[C@@H]3[C@H](CN2C1=O)C3(C)C [Example 167] | 1000 to 20000 nM | 100 to 1000 nM |
| CC(C)(C)OC(=O)NN1CCCC[C@H]2CNC(=O)[C@H]2C[C@@H](C#N)NC(=O)[C@@H]2[C@@H]3[C@H](CN2C1=O)C3(C)C [Example 168] | 1000 to 20000 nM | 1000 to 20000 nM |
